Measurements published in patent US20220389047A1, “O-GLCNACYLATED PROTEIN-LIKE SUBSTANCE AND FIBROSIS THERAPEUTIC DRUG CONTAINING SAME” (KYUSHU UNIVERSITY, NATIONAL UNIVERSITY CORPORATION, priority 2019, published 2022).

Tests used:
NHDF = test: Chemotaxis of NHDF under agarose gel containing the substance; format: cell-based, human; details: FIG. 10, comparison of polymer, monomer, GlcNAc and PBS
Description: Using AC-GlcNAc (10-mer) as an O-GlcNAcylated protein-like substance, 250 μg/mL AC-GlcNAc (10-mer) was mixed with an agarose gel to prepare an O-GlcNAcylated protein-like substance-containing agarose gel. In addition, a PBS-containing agarose gel was prepared using PBS instead of the O-GlcNAcylated protein-like substance. A glass plate was placed in a petri dish, each agarose gel was added dropwise onto the glass plate, NHDF was further seeded on the entire glass plate, and incubation was performed for one day.
Next, agarose gels having blending amounts of 50 μg/mL, 100 μg/mL, and 250 μg/mL of the O-GlcNAcylated protein-like substance were prepared, and the chemotaxis of NHDF was evaluated in the same manner as above. […]
Next, the chemotaxis of NHDF by an O-GlcNAcylated protein-like substance was evaluated. The materials used were the O-GlcNAcylated protein-like substance prepared in Polymerization Example 1, the AC-GlcNAc monomer prepared in Polymerization Example 5, and N-acetylglucosamine (GlcNAc) and PBS used in Example 2, and the chemotaxis of NHDF was evaluated in the same manner as above. […]
Next, it was evaluated by the same method as above whether or not there was a difference in the chemotaxis of NHDF due to the difference in the degree of polymerization of the O-GlcNAcylated protein-like substance. […]

NHDF GDF15 = test: Western blotting of GDF15 expression in NHDF; format: cell-based, human; details: 50 μg/mL, 24 hours, versus control with nothing added
Description: 50 μg/mL of the O-GlcNAcylated protein-like substance, the AC-GlcNAc monomer, or N-acetylglucosamine (GlcNAc) prepared in Polymerization Examples 1 to 5 was added to NHDF, and incubation was performed for 24 hours. After the incubation, the expression of NHDF GDF15 was examined by Western blotting. Furthermore, the control was one to which nothing was added.
Furthermore, 10 μg/mL, 50 μg/mL, and 100 μg/mL of the O-GlcNAcylated protein-like substances (AC-GlcNAc10, mass-average molecular weight: 4,000, number-average molecular weight: 3,100) prepared in Polymerization Example 1 were each added to NHDF, and incubation was performed for 24 hours. After the incubation, the expression of NHDF GDF15 was observed by Western blotting. Furthermore, the control was one to which nothing was added.

Row | SMILES | invasion of cells under the agarose gel (NHDF) | expression of GDF15 (Western blotting) (NHDF GDF15)
1 | C=CC(=O)OCCC(=O)NC1OC(CO)[C@@H](O)C(O)C1NC(C)=O (stereo partly shown) [AC-GlcNAc monomer] | cells invaded under the agarose gel only with the O-GlcNAcylated protein-like substance of Polymerization Example 1 | almost the same effect as the control
2 | CC(=O)N[C@H]1C(O)O[C@H](CO)[C@@H](O)[C@@H]1O (stereo partly shown) [GlcNAc, N-acetylglucosamine] | cells invaded under the agarose gel only with the O-GlcNAcylated protein-like substance of Polymerization Example 1 | almost the same effect as the control
